Data as given in US10314821B2, “Crystalline forms of 4-cyano-N-(2-(4,4-dimethylcyclohex-1-en-1-yl)-6-(2,2,6,6-tetramethyltetrahydro-2H-pyran-4-yl)pyridin-3-yl)-1H-imidazole-2-carboxamide” (Janssen Pharmaceutica NV, priority 2016, dated 2019).
Blank lines part the entries; values can stand above or below the molecule they belong to.

Legend:
Type in all cases: physicochemical
[1] = Competitive slurry studies in water, form by XRPD
Procedure: Competitive slurry studies of Compound A, Forms II, IIA, IIB, III, IV, V, and VI were conducted at RT (room temperature, about 20° C.) and 50° C. in water. […] A small portion of the slurry was transferred to 50° C. after 2 days and analyzed using powder X-ray after being slurred at 50° C. for 2 hours (where a sample of the slurry was placed on an XRPD sample holder, the solvent allowed to evaporate under ambient conditions to yield a residue, and an XRPD measured for the residue). Complete conversion to Form I took place within 2 hours of heating.

[2] = Slurry studies in organic solvents, form by XRPD
Procedure: Small scale saturated solutions of Compound A, Form I (prepared as described in Example 1 above) in the organic solvents noted in Example 2, except water, toluene, or heptane, were prepared as follows. Compound A, Form I (5-10 mg) was added to 2 mL HPLC vials and the selected solvent (50 μL) was added. The resulting slurries were stirred at 300 rpm for up to 1 day. At 1 hour and 1 day time-points, a sample of each slurry was placed on an XRPD sample holder and the solvent evaporated under ambient conditions to yield a solid residue which was then analyzed by X-ray powder diffraction.

[3] = Hygroscopicity and water solubility by USP methods; details: isolated solid, freebase
Procedure: The isolated solid (Compound A, as a freebase) was a white crystalline solid, hygroscopic and insoluble in water as determined by USP methods. […] The XRD for Form I of Compound A differed from the XRD of a sample of the HCl salt of Compound A (e.g., FIG. 15). […] (equivalent to 0.23 mole of water) due to surface water loss and 0.5% between 182° C. and 219° C. due to melting/decomposition (as shown in FIG. 12). This differed from the TGA spectrum of the HCl salt of Compound A (e.g., FIG. 17).

[4] = Visual solubility of Compound A, Form I in solvents; details: 50 mg in 10 mL, stirred, heated to 40° C.; for solubility: organic solvent or mixture, thermodynamic from solid
From the text: An automated solid-state form screening of Compound A was done using a binary solvent system. Screening experiments consisted of an array of 13 solvents (water, methanol, ethanol, acetone, acetonitrile, isopropyl alcohol, ethyl acetate, toluene, tetrahydrofuran (THF), dichloromethane, 2-butanone (MEK), 1-butanol, and heptane) under slow evaporation crystallization conditions. Specifically, saturated solutions of Compound A (prepared as described in Example 1 above) in 13 different solvents were prepared by adding solid powder of Compound A, Form I (50 mg, prepared as described in Example 1 above) and the selected solvent to 20 mL vials. The resulting solutions were stirred and heated to 40° C. All preparations dissolved quickly except in water, toluene, and heptane. Table 1 provides a summary of the visual solubility of Compound A, Form I in the noted solvents.

[5] = Moisture sorption analysis (DVS)
Procedure: The moisture sorption analysis was performed using a Hiden Isochema system Model IGAsorp. The sample was run in a stainless-steel mesh crucible. The sample was initially dried at 60° C. for 30 minutes then the moisture profile was evaluated by monitoring vapor adsorption/desorption over the range of 0 to 90% relative humidity at 25° C. The moisture profile consisted of 2 cycles of vapor adsorption/desorption.

[6] = at the end of a second moisture sorption-desorption cycle

- Time to complete conversion to Form I ([1]; competitive slurry in water at RT (about 20° C.)): 3 days
SMILES: CC1(C)CC=C(c2nc(C3CC(C)(C)OC(C)(C)C3)ccc2NC(=O)c2nc(C#N)c[nH]2)CC1 [Compound A, Form II, 4-cyano-N-[2-(4,4-dimethylcyclohex-1-en-1-yl)-6-(2,2,6,6-tetramethyltetrahydro-2H-pyran-4-yl)pyridine-3-yl]-1H-imidazole-2-carboxamide]

- Saturated Conc. ([2]; 1-Butanol slurry): 90 mg/mL
- Saturated Conc. ([2]; Acetone slurry): 130 mg/mL
- Saturated Conc. ([2]; Acetonitrile slurry): 80 mg/mL
- Saturated Conc. ([2]; DCM (dichloromethane) slurry): 210 mg/mL
- Saturated Conc. ([2]; Ethanol slurry): 110 mg/mL
- Saturated Conc. ([2]; Ethyl Acetate slurry): 120 mg/mL
- Saturated Conc. ([2]; IPA (isopropyl acetate) slurry): 95 mg/mL
- Saturated Conc. ([2]; Methanol slurry): 80 mg/mL
- Saturated Conc. ([2]; THF (tetrahydrofuran) slurry): 420 mg/mL
- XRPD pattern of solids isolated from solvent slurries ([2]; all solvent slurries except THF and DCM): consistent with Form I
- Hygroscopicity [3]: hygroscopic
- Solubility in water [3]: insoluble
- Visual Solubility ([4]; 1-Butanol): Dissolve
- Visual Solubility ([4]; Acetone): Dissolve
- Visual Solubility ([4]; Acetonitrile): Dissolve
- Visual Solubility ([4]; Dichloromethane): Dissolve
- Visual Solubility ([4]; Ethanol): Dissolve
- Visual Solubility ([4]; Ethyl Acetate): Dissolve
- Visual Solubility ([4]; Heptane): Suspension
- solubility ([4]; IPA (isopropyl alcohol), IPA): > 5000 µg/mL
- Visual Solubility ([4]; IPA): Dissolve
- Visual Solubility ([4]; Methanol): Dissolve
- Visual Solubility ([4]; MethylEthylKetone (MEK)): Dissolve
- Visual Solubility ([4]; THF): Dissolve
- Visual Solubility ([4]; Toluene): Suspension
- Visual Solubility ([4]; Water): Suspension
- solubility ([4]; methyl ethyl ketone (MEK, 2-butanone), MethylEthylKetone (MEK)): > 5000 µg/mL
- solubility ([4]; 1-Butanol): > 5000 µg/mL
- solubility ([4]; Acetone): > 5000 µg/mL
- solubility ([4]; Acetonitrile): > 5000 µg/mL
- solubility ([4]; Dichloromethane): > 5000 µg/mL
- solubility ([4]; Ethanol): > 5000 µg/mL
- solubility ([4]; Ethyl Acetate): > 5000 µg/mL
- solubility ([4]; Methanol): > 5000 µg/mL
- solubility ([4]; tetrahydrofuran (THF), THF): > 5000 µg/mL
- Hygroscopicity by DVS ([5]; 0 to 90% relative humidity at 25° C.): hygroscopic
- Crystalline form upon humidity cycling (XRPD before and after DVS) ([5]; 2 cycles of adsorption/desorption): did not change
- Moisture retained [5, 6]: 1.8%
- Moisture retained, equivalent mole of water [5, 6]: 0.47 mole of water
- Moisture adsorption ([5]; up to 90% RH, 25° C.): 41.8%
- Relative thermodynamic stability of polymorphs ([1]; as indicated by competitive slurry, hypothesized): most thermodynamically stable polymorph
SMILES: CC1(C)CC=C(c2nc(C3CC(C)(C)OC(C)(C)C3)ccc2NC(=O)c2nc(C#N)c[nH]2)CC1 [Compound A, Form I, 4-cyano-N-[2-(4,4-dimethylcyclohex-1-en-1-yl)-6-(2,2,6,6-tetramethyltetrahydro-2H-pyran-4-yl)pyridine-3-yl]-1H-imidazole-2-carboxamide]
